Measurements from patent US20100196282A1, “OPTICAL IMAGING AGENTS” (priority 2007, published 2010).
Where a SMILES comes first, the peptide text is derived from it. Bridges are numbered along the chain shown (N, C = ends). The star is where a group is joined. X8 = CC1=CC(C)(C)N(CCCS(=O)(=O)O)c2cc3c(cc21)/C(=C/C=C/C1=[N+](CCCS(=O)(=O)[O-])c2ccc(S(=O)(=O)O)cc2C1(C)CCCC(=O)*)C=C(C(C)(C)C)O3; X7 = CCN1c2cc3c(cc2C(C)=CC1(C)C)/C(=C/C=C/C1=[N+](CCCS(=O)(=O)[O-])c2ccc(S(=O)(=O)O)cc2C1(C)CCCC(=O)*)C=C(C(C)(C)C)O3; X2 = CCN1c2cc3c(cc2C(C)=CC1(C)C)/C(=C/C=C/C1=[N+](CCCCCC(=O)*)c2ccc(S(=O)(=O)[O-])cc2C1(C)C)C=C(C(C)(C)C)O3; X3 = CCN(CCCS(=O)(=O)O)c1ccc2c(c1)OC(C(C)(C)C)=C/C2=C\C=C\C1=[N+](CCCCCC(=O)*)c2ccc(S(=O)(=O)[O-])cc2C1(C)C; X9 = CCN(CC)c1ccc2c(c1)OC(C(C)(C)C)=C/C2=C\C=C\C1=[N+](CCCS(=O)(=O)[O-])c2ccc(S(=O)(=O)O)cc2C1(C)CCCC(=O)*

Assays:
[1] = test system: HT-29 human colon carcinoma tumour (c-Met expressing); assay: In vivo optical imaging of HT-29 tumour-bearing nude mice; design: species or system mouse; conditions: HT-29 s.c. tumours in female BALB c/A nude mice, i.v., 635 nm excitation
Text: Female BALB c/A nude (Born) mice were used in the study. The use of the animals was approved by the local ethics committee. BALB c/A nude is an inbred immunocompromised mouse strain with a high take rate for human tumours as compared to other nude mice strains. The mice were 8 weeks old upon arrival and with a body weight of approx. 20 grams at the start of the study. The animals were housed in individually ventilated cages (IVC, Scanbur BK) with HEPA filtered air. The animals had ad libitum access to “Rat and Mouse nr. 3 Breeding” diet (Scanbur BK) and tap water acidified by addition of HCl to a molar concentration of 1 mM (pH 3.0).
The colon cancer cell HT-29 is derived from human colon carcinomas and is reported to express c-Met according to Zeng et al [Clin. Exp. Metastasis, 21, 409-417. (2004)]. The cell line was proven to be tumorigenic when inoculated subcutaneously into nude mice [Flatmark et al, Eur. J. Cancer 40, 1593-1598 (2004)].
HT-29 cells were grown in McCoy's 5a medium (Sigma #M8403) supplemented with 10% fetal bovine serum and penicillin/streptomycin. Stocks were made at passage number four (P4) and frozen down for storage in liquid nitrogen at 10^7 cells/vial in the respective culture media containing 5% DMSO. On the day of the transplantation, the cells were thawed quickly in 37° C. water bath (approx. 2 min), washed and resuspended in PBS/2% serum (centrifugation at 1200 rpm for 10 min). Thorough mixing of cells in the vials was ensured every time the cells were aspirated into the dosing syringe. A volume of 0.1 ml of cell suspension was injected s.c. at the shoulder and at the back using a fine bore needle (25 G). The animals were then returned to their cages and the tumours were allowed to grow for 13-17 days. The animals were allowed an acclimatisation period of at least 5 days before the inoculation procedure.
All test substances were reconstituted with PBS from freeze-dried powder. A small stack of white printer paper was imaged to obtain a flat field image which was used to correct for illumination inhomogeneities.
For immobilisation during the optical imaging procedure, the animals were anaesthetized in a coaxial open mask to light surgical level anaesthesia with Isoflurane (typically 1.3-2%), using oxygen as the carrier gas. A small piece of skin (3-5 mm) was removed over parts of the tumour and adjacent muscle using a surgical forceps and fine scissors while the animal was anaesthetized. This was done to measure the signal from tumour and muscle without interference from the overlying skin tissue. The wound was covered by applying a liquid, non-fluorescent bandage spray (3M, MN, USA).
The respiration and body temperature of the animal was monitored with a BioVet system (m2m Imaging Corp, NJ, USA) using a pneumatic sensor underneath the animal and a rectal temperature probe. The BioVet system also supplied external heating using a heating mat set to 40° C. to sustain normal body temperature for the duration of the imaging procedure (2 hours). A Venflon catheter was placed in the tail vein for contrast agent administration. Each animal was given one contrast agent injection. The injected volume was 0.1 ml of test compound followed immediately by a 0.2 ml saline flush. Fluorescence images were acquired just prior to injection and then every 30 seconds for 2 hours.
Imaging was performed through a clinical laparoscope adapted to use a light source to excite the reporter and a filtering system to extract the fluorescence component. […]

human serum albumin [2] = target: T1, human serum albumin (Homo sapiens, UniProt P02768); assay: in vitro
Text: Fluorescence polarisation assay was used to examine the affinity binding of the imaging agent towards the cMet target as well as the binding properties related to plasma proteins. The principle of the fluorescence polarisation method can briefly be described as follows:
(§1) The change of the polarization value was used to assess the binding of the Compound to human serum albumin as a low change of polarisation value is associated to low binding being appropriate for in-vivo use.

human serum albumin [3] = target: T1, human serum albumin
in vitro = conditions: mouse, plasma
Text: as §1

human c-Met/Fc chimera = target: T2, human c-Met/Fc chimera (Homo sapiens, UniProt P08581); assay: Fluorescence polarisation assay, affinity binding to cMet; conditions: 5 nM dye-labelled peptide, c-Met/Fc 0-250 nM, 10 min at 30° C., one-site binding
T2 construct: Fc (immunoglobulin Fc fusion partner); purchased R&D Systems
Experimental: Monochromatic light passes through a […] polarizing filter and excites fluorescent molecules in the sample. Only those molecules that oriented properly in the vertically polarized plane adsorb light, become excited, and subsequently emit light. The emitted light is measured in both horizontal and vertical planes. The anisotropy value (A), is the ratio between the light intensities following the equation
The fluorescence anisotropy measurements were performed in 384-well microplates in a volume of 10 μL in binding buffer (PBS, 0.01% Tween-20, pH 7.5) using a Tecan Safire fluorescence polarisation plate reader (Tecan, US) at Ex 635/Em 678 nm. The concentration of dye-labelled peptide was held constant (5 nM) and the concentration of the human c-Met/Fc chimera (R&D Systems) was varied from 0-250 nM. Binding mixtures were equilibrated in the microplate for 10 min at 30° C. The observed change in anisotropy was fitted to the equation: […]
where robs is the observed anisotropy, rfree is the anisotropy of the free peptide, rbound is the anisotropy of the bound peptide, Kd is the dissociation constant, cMet is the total c-Met concentration, and P is the total dye-labelled peptide concentration. The equation assumes that the synthetic peptide and the receptor form a reversible complex in solution with 1:1 stoichiometry. Data fitting was done via nonlinear regression using SigmaPlot software to obtain the Kd value (one-site binding).
Compounds 1 to 6 were tested for binding towards human c-Met (Fc chimera).

T1 sequence (P02768 25-609): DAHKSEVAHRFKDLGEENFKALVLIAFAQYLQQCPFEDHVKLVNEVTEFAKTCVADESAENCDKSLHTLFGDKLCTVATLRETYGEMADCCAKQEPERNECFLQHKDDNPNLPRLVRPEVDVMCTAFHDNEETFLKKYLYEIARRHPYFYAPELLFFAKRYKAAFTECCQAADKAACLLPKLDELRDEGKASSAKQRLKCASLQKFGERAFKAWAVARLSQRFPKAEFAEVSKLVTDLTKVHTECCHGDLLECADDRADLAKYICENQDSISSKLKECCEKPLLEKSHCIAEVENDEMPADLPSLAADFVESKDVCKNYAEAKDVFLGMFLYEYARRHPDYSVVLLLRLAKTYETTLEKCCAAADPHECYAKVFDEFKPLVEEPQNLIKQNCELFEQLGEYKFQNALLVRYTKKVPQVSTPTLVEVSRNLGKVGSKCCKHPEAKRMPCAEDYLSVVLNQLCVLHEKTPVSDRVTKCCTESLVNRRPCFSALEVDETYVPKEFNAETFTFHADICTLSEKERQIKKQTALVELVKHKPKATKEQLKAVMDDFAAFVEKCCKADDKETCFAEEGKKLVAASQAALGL
T2 sequence (P08581 with tags, fused parts or gaps limits assumed): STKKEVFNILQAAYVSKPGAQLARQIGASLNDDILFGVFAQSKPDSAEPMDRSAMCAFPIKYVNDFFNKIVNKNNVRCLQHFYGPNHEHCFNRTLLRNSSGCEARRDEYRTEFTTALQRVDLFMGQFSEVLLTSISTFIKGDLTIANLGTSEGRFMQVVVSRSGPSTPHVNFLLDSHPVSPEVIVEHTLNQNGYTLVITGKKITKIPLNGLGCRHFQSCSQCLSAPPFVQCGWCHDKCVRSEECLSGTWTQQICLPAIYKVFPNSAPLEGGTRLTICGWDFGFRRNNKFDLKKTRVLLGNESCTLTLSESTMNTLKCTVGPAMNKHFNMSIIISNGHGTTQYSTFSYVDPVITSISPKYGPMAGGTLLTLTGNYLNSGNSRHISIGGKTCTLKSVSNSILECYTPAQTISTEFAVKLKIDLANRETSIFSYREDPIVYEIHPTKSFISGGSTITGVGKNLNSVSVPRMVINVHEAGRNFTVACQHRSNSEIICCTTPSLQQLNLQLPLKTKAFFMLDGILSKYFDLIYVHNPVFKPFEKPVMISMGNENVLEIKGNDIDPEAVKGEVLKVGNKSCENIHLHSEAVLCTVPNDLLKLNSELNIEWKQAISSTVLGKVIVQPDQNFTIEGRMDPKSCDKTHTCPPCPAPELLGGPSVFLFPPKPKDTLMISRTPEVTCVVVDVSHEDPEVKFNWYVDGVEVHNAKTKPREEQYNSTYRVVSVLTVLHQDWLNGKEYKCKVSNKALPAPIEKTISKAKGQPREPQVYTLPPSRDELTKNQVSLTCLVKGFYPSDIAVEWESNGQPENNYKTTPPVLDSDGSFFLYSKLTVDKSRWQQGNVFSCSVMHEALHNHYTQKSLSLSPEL
T2 sequence (P08581 25-307 limits assumed, change not shown): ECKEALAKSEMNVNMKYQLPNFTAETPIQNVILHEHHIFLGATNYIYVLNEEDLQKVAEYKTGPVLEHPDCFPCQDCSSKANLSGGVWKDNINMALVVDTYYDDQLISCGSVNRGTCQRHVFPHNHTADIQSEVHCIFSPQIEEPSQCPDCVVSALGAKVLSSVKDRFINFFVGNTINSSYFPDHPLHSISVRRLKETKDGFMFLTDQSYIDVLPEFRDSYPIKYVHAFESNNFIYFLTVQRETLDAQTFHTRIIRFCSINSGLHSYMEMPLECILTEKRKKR

| SMILES | Average tumour:muscle ratio (2 hours p.i.) [1] | fraction unbound (human serum albumin [2]) | Binding human serum albumin (Biacore) (human serum albumin [3]) | remaining at 2 h (in vitro) [%] | Kd (human c-Met/Fc chimera) [nM] |
| --- | --- | --- | --- | --- | --- |
| CCN(CC)c1ccc2c(c1)OC(C(C)(C)C)=C/C2=C\C=C\C1=[N+](CCCS(=O)(=O)[O-])c2ccc(S(=O)(=O)O)cc2C1(C)CCCC(=O)NCCCC[C@H](NC(=O)CNC(=O)CNC(=O)CNC(=O)[C@@H](NC(=O)CNC(=O)[C@H](CCC(=O)O)NC(=O)[C@@H](NC(=O)[C@H](CCC(=O)O)NC(=O)[C@H](Cc1ccc(O)cc1)NC(=O)[C@@H]1CSSC[C@H](NC(=O)[C@H](CO)NC(=O)CNC(=O)[C@H](C)NC(C)=O)C(=O)N[C@@H](Cc2ccc(O)cc2)C(=O)N[C@H]2CSSC[C@H](NC(=O)[C@H](CCC(=O)O)NC(=O)[C@H](Cc3ccccc3)NC(=O)[C@H](CCCNC(=N)N)NC(=O)[C@@H]3CCCN3C(=O)[C@@H]3CCCN3C(=O)CNC(=O)[C@H](CO)NC2=O)C(=O)N[C@@H](Cc2c[nH]c3ccccc23)C(=O)N1)[C@@H](C)O)[C@@H](C)O)C(N)=O (stereo partly shown) [Compound 2] (Ac-AGSCYCSGPPRFECWCYETEGTGGGK(X9)-NH2; disulfide 4-16, 6-14) | 2.40 | – | – | – | – |
| CCN(CCCS(=O)(=O)O)c1ccc2c(c1)OC(C(C)(C)C)=C/C2=C\C=C\C1=[N+](CCCCCC(=O)NCCCC[C@H](NC(=O)CNC(=O)CNC(=O)CNC(=O)[C@@H](NC(=O)CNC(=O)[C@H](CCC(=O)O)NC(=O)[C@@H](NC(=O)[C@H](CCC(=O)O)NC(=O)[C@H](Cc2ccc(O)cc2)NC(=O)[C@@H]2CSSC[C@H](NC(=O)[C@H](CO)NC(=O)CNC(=O)[C@H](C)NC(C)=O)C(=O)N[C@@H](Cc3ccc(O)cc3)C(=O)N[C@H]3CSSC[C@H](NC(=O)[C@H](CCC(=O)O)NC(=O)[C@H](Cc4ccccc4)NC(=O)[C@H](CCCNC(=N)N)NC(=O)[C@@H]4CCCN4C(=O)[C@@H]4CCCN4C(=O)CNC(=O)[C@H](CO)NC3=O)C(=O)N[C@@H](Cc3c[nH]c4ccccc34)C(=O)N2)[C@@H](C)O)[C@@H](C)O)C(N)=O)c2ccc(S(=O)(=O)[O-])cc2C1(C)C [Compound 3] (Ac-AGSCYCSGPPRFECWCYETEGTGGGK(X3)-NH2; disulfide 4-16, 6-14) | 1.67 | 0.73 | Low | > 95 | 0.5 |
| CCN1c2cc3c(cc2C(C)=CC1(C)C)/C(=C/C=C/C1=[N+](CCCCCC(=O)NCCCC[C@H](NC(=O)CNC(=O)CNC(=O)CNC(=O)[C@@H](NC(=O)CNC(=O)[C@H](CCC(=O)O)NC(=O)[C@@H](NC(=O)[C@H](CCC(=O)O)NC(=O)[C@H](Cc2ccc(O)cc2)NC(=O)[C@@H]2CSSC[C@H](NC(=O)[C@H](CO)NC(=O)CNC(=O)[C@H](C)NC(C)=O)C(=O)N[C@@H](Cc4ccc(O)cc4)C(=O)N[C@H]4CSSC[C@H](NC(=O)[C@H](CCC(=O)O)NC(=O)[C@H](Cc5ccccc5)NC(=O)[C@H](CCCNC(=N)N)NC(=O)[C@@H]5CCCN5C(=O)[C@@H]5CCCN5C(=O)CNC(=O)[C@H](CO)NC4=O)C(=O)N[C@@H](Cc4c[nH]c5ccccc45)C(=O)N2)[C@@H](C)O)[C@@H](C)O)C(N)=O)c2ccc(S(=O)(=O)[O-])cc2C1(C)C)C=C(C(C)(C)C)O3 [Compound 4] (Ac-AGSCYCSGPPRFECWCYETEGTGGGK(X2)-NH2; disulfide 4-16, 6-14) | 1.52 | 0.45 | Very high | > 95 | 3.2 |
| CCN1c2cc3c(cc2C(C)=CC1(C)C)/C(=C/C=C/C1=[N+](CCCS(=O)(=O)[O-])c2ccc(S(=O)(=O)O)cc2C1(C)CCCC(=O)NCCCC[C@H](NC(=O)CNC(=O)CNC(=O)CNC(=O)[C@@H](NC(=O)CNC(=O)[C@H](CCC(=O)O)NC(=O)[C@@H](NC(=O)[C@H](CCC(=O)O)NC(=O)[C@H](Cc1ccc(O)cc1)NC(=O)[C@@H]1CSSC[C@H](NC(=O)[C@H](CO)NC(=O)CNC(=O)[C@H](C)NC(C)=O)C(=O)N[C@@H](Cc2ccc(O)cc2)C(=O)N[C@H]2CSSC[C@H](NC(=O)[C@H](CCC(=O)O)NC(=O)[C@H](Cc4ccccc4)NC(=O)[C@H](CCCNC(=N)N)NC(=O)[C@@H]4CCCN4C(=O)[C@@H]4CCCN4C(=O)CNC(=O)[C@H](CO)NC2=O)C(=O)N[C@@H](Cc2c[nH]c4ccccc24)C(=O)N1)[C@@H](C)O)[C@@H](C)O)C(N)=O)C=C(C(C)(C)C)O3 (stereo partly shown) [Compound 5] (Ac-AGSCYCSGPPRFECWCYETEGTGGGK(X7)-NH2; disulfide 4-16, 6-14) | 1.22 | – | – | – | – |
| CC(=O)N[C@@H](C)C(=O)NCC(=O)N[C@@H](CO)C(=O)N[C@H]1CSSC[C@@H](C(=O)N[C@@H](Cc2ccc(O)cc2)C(=O)N[C@@H](CCC(=O)O)C(=O)N[C@H](C(=O)N[C@@H](CCC(=O)O)C(=O)NCC(=O)N[C@H](C(=O)NCC(=O)NCC(=O)NCC(=O)N[C@@H](CCCCNC(=O)CCCC2(C)C(/C=C/C=C3\C=C(C(C)(C)C)Oc4cc5c(cc43)C(C)=CC(C)(C)N5CCCS(=O)(=O)O)=[N+](CCCS(=O)(=O)[O-])c3ccc(S(=O)(=O)O)cc32)C(N)=O)[C@@H](C)O)[C@@H](C)O)NC(=O)[C@H](Cc2c[nH]c3ccccc23)NC(=O)[C@@H]2CSSC[C@H](NC(=O)[C@H](Cc3ccc(O)cc3)NC1=O)C(=O)N[C@@H](CO)C(=O)NCC(=O)N1CCC[C@H]1C(=O)N1CCC[C@H]1C(=O)N[C@@H](CCCNC(=N)N)C(=O)N[C@@H](Cc1ccccc1)C(=O)N[C@@H](CCC(=O)O)C(=O)N2 (stereo partly shown) [Compound 6] (Ac-AGSCYCSGPPRFECWCYETEGTGGGK(X8)-NH2; disulfide 4-16, 6-14) | 1.57 | – | – | – | – |
